From patent publication US9695155B2, “Herbicidal substituted pyrimidinyloxy benzene compounds” (E. I. DU PONT DE NEMOURS AND COMPANY, priority 2013, dated 2017)

What was measured:
corn [1] = assay: Test C postemergence; format: in vivo, Zea mays; conditions: Zea mays, post-emergence
Procedure, shortened: (§1)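 Injury was assessed visually against controls 13 to 15 days after application, with 0 meaning no effect and 100 full control; missing entries are shown as a dash. Preemergence sprays hit seeded loam–sand soil, postemergence sprays hit 1- to 4-leaf plants.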

lambsquarters = assay: Test C preemergence; format: in vivo, Chenopodium album; conditions: Chenopodium album, pre-emergence
Procedure, shortened: as §1

kochia = assay: Test C postemergence; format: in vivo, Kochia scoparia; conditions: Bassia scoparia, post-emergence
Procedure, shortened: as §1

barnyardgrass = assay: Test A preemergence; format: in vivo, Echinochloa crus-galli; conditions: Echinochloa crus-galli, pre-emergence, 240 h, 0 to 100 scale where 0 is no effect and 100 is complete control
Procedure, shortened: (§2)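 Visual 0–100 rating (100 = complete control) taken about 10 d post-treatment relative to untreated checks. Preemergence: directed soil spray on sown loam/sand pots. Postemergence: seedlings 2–10 cm, 1–2 leaf. Non-phytotoxic solvent formulation with surfactant.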

galium = assay: Test C postemergence; format: in vivo, Galium aparine; conditions: Galium, post-emergence
Procedure, shortened: as §1

chickweed = assay: Test C postemergence; format: in vivo, Stellaria media; conditions: Stellaria media, post-emergence
Procedure, shortened: as §1

giant foxtail [2] = assay: Test A postemergence; format: in vivo, Setaria faberii; conditions: Setaria faberi, post-emergence, 240 h, 0 to 100 scale where 0 is no effect and 100 is complete control
Procedure, shortened: as §2

johnsongrass [3] = assay: Test C preemergence; format: in vivo, Sorghum halepense; conditions: Sorghum halepense, pre-emergence
Procedure, shortened: as §1

ragweed = assay: Test C preemergence; format: in vivo, Ambrosia elatior; conditions: Ambrosia artemisiifolia, pre-emergence
Procedure, shortened: as §1

large (Lg) crabgrass = assay: Test C preemergence; format: in vivo, Digitaria sanguinalis; conditions: Digitaria sanguinalis, pre-emergence
Procedure, shortened: as §1

corn [4] = assay: Test A postemergence; format: in vivo, Zea mays; conditions: Zea mays, post-emergence, 240 h, 0 to 100 scale where 0 is no effect and 100 is complete control
Procedure, shortened: as §2

pigweed [5] = assay: Test A postemergence; format: in vivo, Amaranthus retroflexus; conditions: Amaranthus retroflexus, post-emergence, 0 to 100 scale where 0 is no effect and 100 is complete control
Procedure, shortened: as §2

giant foxtail [6] = assay: Test C postemergence; format: in vivo, Setaria faberii; conditions: Setaria faberi, post-emergence
Procedure, shortened: as §1

pigweed [7] = assay: Test A preemergence; format: in vivo, Amaranthus retroflexus; conditions: Amaranthus retroflexus, pre-emergence, 0 to 100 scale where 0 is no effect and 100 is complete control
Procedure, shortened: as §2

johnsongrass [8] = assay: Test C postemergence; format: in vivo, Sorghum halepense; conditions: Sorghum halepense, post-emergence
Procedure, shortened: as §1

SMILES: FC(F)(F)Sc1cnn(-c2ccccc2Oc2ncc(Cl)cn2)c1 [Compound 132, 5-chloro-2-[2-[4-(trifluoromethylthio)-1H-pyrazol-1-yl]phenoxy]pyrimidine]
- plant injury at 16 g/ha (corn [1]; 16 g ai/ha, postemergence, 0 is no effect, 100 is complete control, read-out: Plant response rating (0 to 100), Corn): 5%
- Corn plant response rating (crop injury, 0 = no effect, 100 = complete kill) at 125 g/ha (corn [1]; 125 g ai/ha, postemergence, visual rating, scale 0 to 100 (0 no effect, 100 complete control)): 10%
- Corn plant response rating (crop injury, 0 = no effect, 100 = complete kill) at 62 g/ha (corn [1]; Postemergence, 62 g ai/ha, scale 0 to 100 (0 no effect, 100 complete control)): 5%
- pest or weed control at 16 g/ha (lambsquarters; 16 g ai/ha, preemergence, scale 0 to 100 (0 no effect, 100 complete control), read-out: Lambsquarters plant response rating): 75%
- pest or weed control at 62 g/ha (lambsquarters; 62 g ai/ha, preemergence, scale 0 (no effect) to 100 (complete control), read-out: Lambsquarters plant response rating): 100%
- pest or weed control at 125 g/ha (lambsquarters; 125 g ai/ha, preemergence, scale 0 (no effect) to 100 (complete control), read-out: Lambsquarters plant response rating): 100%
- pest or weed control at 31 g/ha (lambsquarters; Preemergence, 31 g ai/ha, scale 0 to 100, 0 no effect, 100 complete control, read-out: Plant response rating, Lambsquarters): 55%
- pest or weed control at 16 g/ha (kochia; 16 g ai/ha, postemergence, 0 is no effect, 100 is complete control, read-out: Plant response rating (0 to 100), Kochia): 10%
- pest or weed control at 125 g/ha (kochia; 125 g ai/ha, postemergence, visual rating, scale 0 to 100 (0 no effect, 100 complete control), read-out: Plant response rating, Kochia): 95%
- pest or weed control at 62 g/ha (kochia; Postemergence, 62 g ai/ha, scale 0 to 100 (0 no effect, 100 complete control), read-out: Plant response rating, Kochia): 85%
- pest or weed control at 125 g/ha (barnyardgrass; 125 g ai/ha, read-out: Plant response rating, Barnyardgrass): 50%
- pest or weed control at 500 g/ha (barnyardgrass; 500 g ai/ha, read-out: Barnyardgrass plant response rating): 100%
- pest or weed control at 16 g/ha (galium; 16 g ai/ha, postemergence, 0 is no effect, 100 is complete control, read-out: Plant response rating (0 to 100), Galium): 50%
- pest or weed control at 125 g/ha (galium; 125 g ai/ha, postemergence, visual rating, scale 0 to 100 (0 no effect, 100 complete control), read-out: Plant response rating, Galium): 70%
- pest or weed control at 62 g/ha (galium; Postemergence, 62 g ai/ha, scale 0 to 100 (0 no effect, 100 complete control), read-out: Plant response rating, Galium): 65%
- pest or weed control at 16 g/ha (chickweed; 16 g ai/ha, postemergence, 0 is no effect, 100 is complete control, read-out: Plant response rating (0 to 100), Chickweed): 10%
- pest or weed control at 125 g/ha (chickweed; 125 g ai/ha, postemergence, visual rating, scale 0 to 100 (0 no effect, 100 complete control), read-out: Plant response rating, Chickweed): 40%
- pest or weed control at 62 g/ha (chickweed; Postemergence, 62 g ai/ha, scale 0 to 100 (0 no effect, 100 complete control), read-out: Plant response rating, Chickweed): 30%
- pest or weed control at 125 g/ha (giant foxtail [2]; 125 g ai/ha, read-out: Foxtail, Giant plant response rating): 60%
- pest or weed control at 500 g/ha (giant foxtail [2]; 500 g ai/ha, read-out: Plant response rating, Foxtail, Giant): 90%
- pest or weed control at 16 g/ha (johnsongrass [3]; 16 g ai/ha, preemergence, scale 0 to 100 (0 no effect, 100 complete control), read-out: Johnsongrass plant response rating): 0%
- pest or weed control at 62 g/ha (johnsongrass [3]; 62 g ai/ha, preemergence, scale 0 (no effect) to 100 (complete control), read-out: Johnsongrass plant response rating): 0%
- pest or weed control at 125 g/ha (johnsongrass [3]; 125 g ai/ha, preemergence, scale 0 (no effect) to 100 (complete control), read-out: Johnsongrass plant response rating): 35%
- pest or weed control at 31 g/ha (johnsongrass [3]; Preemergence, 31 g ai/ha, scale 0 to 100, 0 no effect, 100 complete control, read-out: Plant response rating, Johnsongrass): 0%
- pest or weed control at 16 g/ha (ragweed; 16 g ai/ha, preemergence, scale 0 to 100 (0 no effect, 100 complete control), read-out: Ragweed plant response rating): 10%
- pest or weed control at 62 g/ha (ragweed; 62 g ai/ha, preemergence, scale 0 (no effect) to 100 (complete control), read-out: Ragweed plant response rating): 40%
- pest or weed control at 125 g/ha (ragweed; 125 g ai/ha, preemergence, scale 0 (no effect) to 100 (complete control), read-out: Ragweed plant response rating): 30%
- pest or weed control at 31 g/ha (ragweed; Preemergence, 31 g ai/ha, scale 0 to 100, 0 no effect, 100 complete control, read-out: Plant response rating, Ragweed): 10%
- pest or weed control at 16 g/ha (large (Lg) crabgrass; 16 g ai/ha, preemergence, scale 0 to 100 (0 no effect, 100 complete control), read-out: Crabgrass, Large plant response rating): 65%
- pest or weed control at 62 g/ha (large (Lg) crabgrass; 62 g ai/ha, preemergence, scale 0 (no effect) to 100 (complete control), read-out: Crabgrass, Large plant response rating): 98%
- pest or weed control at 125 g/ha (large (Lg) crabgrass; 125 g ai/ha, preemergence, scale 0 (no effect) to 100 (complete control), read-out: Crabgrass, Large plant response rating): 100%
- pest or weed control at 31 g/ha (large (Lg) crabgrass; Preemergence, 31 g ai/ha, scale 0 to 100, 0 no effect, 100 complete control, read-out: Plant response rating, Crabgrass, Large): 85%
- plant injury at 125 g/ha (corn [4]; 125 g ai/ha, read-out: Corn plant response rating): 20%
- Corn plant response rating (crop injury, 0 = no effect, 100 = complete kill) at 500 g/ha (corn [4]; 500 g ai/ha): 50%
- pest or weed control at 500 g/ha (pigweed [5]; 500 g ai/ha, read-out: Plant response rating, Pigweed): 100%
- pest or weed control at 125 g/ha (pigweed [5]; 240 h, 125 g ai/ha, read-out: Pigweed plant response rating): 100%
- pest or weed control at 16 g/ha (giant foxtail [6]; 16 g ai/ha, postemergence, 0 is no effect, 100 is complete control, read-out: Plant response rating (0 to 100), Foxtail, Giant): 0%
- pest or weed control at 125 g/ha (giant foxtail [6]; 125 g ai/ha, postemergence, visual rating, scale 0 to 100 (0 no effect, 100 complete control), read-out: Plant response rating, Foxtail, Giant): 10%
- pest or weed control at 62 g/ha (giant foxtail [6]; Postemergence, 62 g ai/ha, scale 0 to 100 (0 no effect, 100 complete control), read-out: Plant response rating, Foxtail, Giant): 5%
- pest or weed control at 125 g/ha (pigweed [7]; 125 g ai/ha, read-out: Plant response rating, Pigweed): 100%
- pest or weed control at 500 g/ha (pigweed [7]; 240 h, 500 g ai/ha, read-out: Pigweed plant response rating): 100%
- pest or weed control at 16 g/ha (johnsongrass [8]; 16 g ai/ha, postemergence, 0 is no effect, 100 is complete control, read-out: Plant response rating (0 to 100), Johnsongrass): 5%
- pest or weed control at 125 g/ha (johnsongrass [8]; 125 g ai/ha, postemergence, visual rating, scale 0 to 100 (0 no effect, 100 complete control), read-out: Plant response rating, Johnsongrass): 5%
- pest or weed control at 62 g/ha (johnsongrass [8]; Postemergence, 62 g ai/ha, scale 0 to 100 (0 no effect, 100 complete control), read-out: Plant response rating, Johnsongrass): 5%
